Test results: patent US8901313B2, “6,5-heterocyclic propargylic alcohol compounds and uses therefor” (Genentech, Inc., priority 2011, dated 2014)

Tests used:
[1] = tested on: NF-kB signaling through NIK in human embryonic kidney 293 cells; test: 293-NIK NF-kB-Luciferase reporter assay; type: cell-based; settings: HEK293, 293 cells with tetracycline-inducible NIK, 1 ug/mL doxycycline, 24 hours, read-out: inhibitory value (IC50) for 293-NIK NF-kB-Luciferase activity
Text: (1) The first assay was used to profile whether a test compound can inhibit the NF-kB signally through NIK inhibition without affecting cell viability. In this assay, human embryonic kidney 293 cells was stably transfected with a tetracycline-inducible NIK DNA construct containing a cytomegalovirus promoter plus two reporter DNA constructs. One reporter encoded firefly luciferase under the control of three repeats of an NF-kB response element from the ELAM-1 gene and reflects the level of NIK activity in the cells, whereas the other reporter constitutively expressed Renilla luciferase under the control of the herpes simplex virus thymidine kinase promoter and served as a general measure of cell viability. Cells were incubated with different concentrations of compounds (0.2% DMSO final) in medium containing 1 ug/mL doxycycline and 10% tet-system approved fetal bovine serum (Clontech) for 24 hours, after which the reporters' signals were detected using the Dual Glo luciferase detection system (Promega) according to the vendor's protocol. The compounds listed in Table 1 have the corresponding inhibitory value (IC50 in micromolar) for 293-NIK NF-kB-Luciferase activity (values for compounds are presented in the same order as found in Table 1): na, 0.059, na, na, na, 0.105, 0.027, na, 20, 1.2, na, 1.8, 0.0231, 0.879, 0.0361, 0.582, na, 0.142, na, 0.403, 0.059, 0.0331, na, na, 0.0573, 1.5, na, na, 0.0722, na, na, 0.589, 12.7, 3.7, 14.9, na, 0.707, 1, 0.0311, 0.332, 0.309, 0.0142, 0.051, 2.8, 0.129, na, na, 1.5, na, na, na, 1.3, 0.062, 20, 0.31, 0.104, 0.091, 0.037, 0.085, 0.279, na, 0.305, 0.064, 0.332, 0.133, 0.168, 0.217, 0.553, na and na.

[2] = target: T1, nuclear factor-kappa B (NF-kB)-inducing kinase (NIK) (Homo sapiens, UniProt Q99558); test: NIK Enzyme Inhibition Assay (Transcreener ADP assay); type: biochemical; settings: purified NIK 0.2-1 nM, 10 uM ATP, fluorescence polarization, Morrison's quadratic equation; read-out: inhibitory value (Ki) for NIK
T1 construct: made in house; host or cells: baculovirus-infected insect cells
T1 sequence (Q99558 whole entry): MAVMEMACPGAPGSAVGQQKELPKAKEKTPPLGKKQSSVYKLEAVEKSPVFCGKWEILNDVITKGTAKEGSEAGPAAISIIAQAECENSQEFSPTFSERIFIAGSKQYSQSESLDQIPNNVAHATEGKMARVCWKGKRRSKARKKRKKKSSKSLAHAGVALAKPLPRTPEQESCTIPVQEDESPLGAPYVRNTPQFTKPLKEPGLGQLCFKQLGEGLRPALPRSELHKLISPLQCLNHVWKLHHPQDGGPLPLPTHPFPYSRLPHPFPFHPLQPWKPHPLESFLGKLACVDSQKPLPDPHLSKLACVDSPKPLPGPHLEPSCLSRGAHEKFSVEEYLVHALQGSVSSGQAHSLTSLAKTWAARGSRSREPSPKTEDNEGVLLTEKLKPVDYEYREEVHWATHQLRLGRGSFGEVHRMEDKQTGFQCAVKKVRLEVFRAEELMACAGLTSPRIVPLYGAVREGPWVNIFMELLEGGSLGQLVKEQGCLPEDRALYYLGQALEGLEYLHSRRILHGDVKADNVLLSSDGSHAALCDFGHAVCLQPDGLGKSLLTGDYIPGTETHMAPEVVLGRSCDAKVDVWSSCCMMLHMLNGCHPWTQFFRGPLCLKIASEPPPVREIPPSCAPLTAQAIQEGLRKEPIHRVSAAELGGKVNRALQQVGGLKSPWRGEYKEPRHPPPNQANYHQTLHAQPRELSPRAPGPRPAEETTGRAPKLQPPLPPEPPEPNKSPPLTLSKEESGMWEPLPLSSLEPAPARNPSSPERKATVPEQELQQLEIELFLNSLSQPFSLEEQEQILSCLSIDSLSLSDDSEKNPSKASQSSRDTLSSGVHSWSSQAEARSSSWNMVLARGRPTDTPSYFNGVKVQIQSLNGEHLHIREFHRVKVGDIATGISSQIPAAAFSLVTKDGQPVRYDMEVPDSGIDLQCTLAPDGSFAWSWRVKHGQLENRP

[3] = tested on: REL-A (p65) nuclear translocation in HeLa cells; test: NIK RelA Translocation Assay (classical NF-kB signaling); type: cell-based; settings: Homo sapiens; HeLa cells, compounds 4.5 hours, 10 ng/mL TNF-α 30 minutes; read-out: inhibitory value (IC50) for NIK RelA Translocation Assay
Description: (§1) (2) A second set of cell assay was used to define the selectivity of NIK inhibitors toward inhibition of classical vs. non-classical NF-kB signaling and rely on quantification of the nuclear translocation of p52 (NF-kB2) and REL-A (p65) using high content cellular imaging. For the p52 (non-classical NF-kB signaling) nuclear translocation assay, HeLa cells were treated with different concentrations of compounds (0.2% DMSO final) in medium containing 10% fetal bovine serum and then stimulated with 100 ng/mL of an anti-lymphotoxin beta receptor antibody (R&D Systems) for 5 hours. In the REL-A nuclear translocation assay, HeLa cells were incubated with compounds (0.2% DMSO final) for 4.5 hours in medium containing 10% fetal bovine serum before stimulating them with 10 ng/mL tumor necrosis factor (TNF)-α (R&D Systems) for 30 minutes. Cells were fixed with 4% paraformaldehyde, permeabilized by adding 0.1% Triton X-100 in phosphate buffered saline, and then incubated with either 2 ug/mL anti-p52 antibody (Millipore) or 400 ng/mL anti-REL-A (p65) antibody (Santa Cruz Biotechnology). Finally, the cells were incubated with an Alexa488-labeled secondary antibody (Invitrogen) and DRAQ5 DNA stain (Biostatus). Imaging was carried out using an Opera reader (Perkin Elmer) and data are analyzed with the aid of Acapella software (Perkin Elmer). The p52 or REL-A translocation into the nucleus was quantified by the ratio of the nuclear to cytoplasmic signal intensity. The concentration of inhibitor required for 50% inhibition (IC50 values) in these cell assays were derived from the plots of signal vs. inhibitor concentration. The compounds in listed in Table 1 have the corresponding inhibitory value (IC50 in micromolar) for NIK p52 Translocation Assay (values for compounds are presented in the same order as found in Table 1, and “na” means the data for this assay is to be determined): 0.326, 0.33, na, na, na, 0.218, 0.07, na, na, na, 0.129, 7.6, 0.077, 3.4, na, 0.518, na, 0.059, 0.514, 0.127, na, na, 0.010, na, na, 0.313, 0.275, na, 0.0727, na, na, na, na, na, na, 0.194, na, 6.4, 0.22, 0.346, na, na, na and na, na, na, na, na, na, 0.447, na, 0.089, 0.479, 0.489, 0.243, 0.747, 1, na, 1.9, 0.552, 2.1, na. na, na, na, na and na.
The compounds in listed in Table 1 has the corresponding inhibitory value (IC50 in micromolar) for NIK RelA Translocation Assay (values for compounds are presented in the same order as found in Table 1): 0.326, 0.33, na, na, na, 0.218, 0.07, na, na, na, na, na, 0.129, 7.6, 0.077, 3.4, na, 0.518, na, 0.059, 0.514, 0.127, na, na, 0.010, na, na, 0.313, 0.275, na, na, 0.0727, na, na, na, na, na, na, 0.194, na, 6.4, 0.22, 0.346, na, na, na, na, na, na, na, na, na, 0.447, na, 0.089, 0.479, 0.489, 0.243, 0.747, 1, na, 1.9, 0.552, 2.1, na, na, na, na, na and na.

[4] = tested on: p52 (NF-kB2) nuclear translocation in HeLa cells; test: NIK p52 Translocation Assay (non-classical NF-kB signaling); type: cell-based; settings: Homo sapiens; HeLa cells, 100 ng/mL anti-lymphotoxin beta receptor antibody, 5 hours; read-out: inhibitory value (IC50) for NIK p52 Translocation Assay
Description: as §1

SMILES | Ki [2] [nM] | IC50 [3] [nM] | IC50 [1] [nM] | IC50 [4] [nM]
Cc1nn(-c2ccnc(N)n2)c2cc(C#C[C@@](C)(O)c3nccs3)ccc12 (stereo in doubt) [Example T1-42, 4-(1-(2-aminopyrimidin-4-yl)-3-methyl-1H-indazol-6-yl)-2-(thiazol-2-yl)but-3-yn-2-ol] | 0.14 | 220 | 14.2 | 
CC(O)(C#Cc1ccc2cnn(-c3ccnc(N)n3)c2c1)c1ncco1 (stereo not drawn) [Example T1-15, 4-(1-(2-aminopyrimidin-4-yl)-1H-indazol-6-yl)-2-(oxazol-2-yl)but-3-yn-2-ol] | 0.32 | 77 | 36.1 | 
CC1(C(=O)Nc2cnc(N)nc2-n2ncc3ccc(C#CC(C)(O)c4nccs4)cc32)COC1 (stereo not drawn) [Example T1-16, N-(2-amino-4-(6-(3-hydroxy-3-(thiazol-2-yl)but-1-ynyl)-1H-indazol-1-yl)pyrimidin-5-yl)-3-methyloxetane-3-carboxamide] | 27 | 3400 | 582 | 518
CC(C)(O)C#Cc1ccc2[nH]c(=O)n(-c3ccnc(N)n3)c2c1 [Example T1-20, 1-(2-aminopyrimidin-4-yl)-6-(3-hydroxy-3-methylbut-1-ynyl)-1H-benzo[d]imidazol-2(3H)-one] | 49 | 59 | 403 | 127
CC(O)(C#Cc1ccc2[nH]c(=O)n(-c3ccnc(N)n3)c2c1)c1nccs1 (stereo not drawn) [Example T1-21, 1-(2-aminopyrimidin-4-yl)-6-(3-hydroxy-3-(thiazol-2-yl)but-1-ynyl)-1H-benzo[d] imidazol-2(3H)-one] | 0.3 | 514 | 59 | 
Cc1cc(C(C)(O)C#Cc2ccc3ncn(-c4ccnc(N)n4)c3c2)no1 (stereo not drawn) [Example T1-28, 4-(1-(2-aminopyrimidin-4-yl)-1H-benzo[d]imidazol-6-yl)-2-(5-methylisoxazol-3-yl) but-3-yn-2-ol] | 0.42 | 313 |  | 
CCOc1nc2ccc(C#CC(C)(C)O)cc2n1-c1ccnc(N)n1 [Example T1-38, 4-(1-(2-aminopyrimidin-4-yl)-2-ethoxy-1H-benzo[d]imidazol-6-yl)-2-methylbut-3-yn-2-ol] | 16 |  | 1000 | 6400
CC(O)(C#Cc1cc2c(cc1F)ncn2-c1ccnc(N)n1)c1nccs1 (stereo not drawn) [Example T1-39, 4-(1-(2-aminopyrimidin-4-yl)-5-fluoro-1H-benzo[d]imidazol-6-yl)-2-(thiazol-2-yl)but-3-yn-2-ol] | 0.25 | 194 | 31.1 | 220
Cc1cc(C(C)(O)C#Cc2ccc3ncn(-c4ccnc(N)n4)c3c2)on1 (stereo not drawn) [Example T1-41, 4-(1-(2-aminopyrimidin-4-yl)-1H-benzo[d]imidazol-6-yl)-2-(3-methylisoxazol-5-yl) but-3-yn-2-ol] | 8.5 | 6400 | 309 | 
CN(C)C(=O)c1nn(-c2ccnc(N)n2)c2cc(C#CC(C)(O)c3ncco3)ccc12 (stereo not drawn) [Example T1-43, 1-(2-aminopyrimidin-4-yl)-6-(3-hydroxy-3-(oxazol-2-yl)but-1-ynyl)-N,N-dimethyl-1H-indazole-3-carboxamide] | 0.2 | 346 | 51 | 

Continued by falling Ki [2], values first:

Ki [2] [nM] | IC50 [3] [nM] | SMILES | IC50 [1] [nM] | IC50 [4] [nM]
61 |  | CC(O)(C#Cc1ccc2ncn(-c3ccnc(N)n3)c2c1)C(F)F (stereo not drawn) [Example T1-26, 4-(1-(2-aminopyrimidin-4-yl)-1H-benzo[d]imidazol-6-yl)-1,1-difluoro-2-methylbut-3-yn-2-ol] | 1500 | 313
12 | 10 | CN(C)Cc1nn(-c2ccnc(N)n2)c2cc(C#CC(C)(C)O)ccc12 [Example T1-25, 4-(1-(2-aminopyrimidin-4-yl)-3-((dimethylamino)methyl)-1H-indazol-6-yl)-2-methylbut-3-yn-2-ol] | 57.3 | 
6.9 | 7600 | CC(O)(C#Cc1ccc2nc(C3CC3)n(-c3ccnc(N)n3)c2c1)c1nccs1 (stereo not drawn) [Example T1-14, 4-(1-(2-aminopyrimidin-4-yl)-2-cyclopropyl-1H-benzo[d]imidazol-6-yl)-2-(thiazol-2-yl) but-3-yn-2-ol] | 879 | 3400
3 |  | CC(C)(O)C#Cc1cc2c(cc1F)ncn2-c1ccnc(N)n1 [Example T1-40, 4-(1-(2-aminopyrimidin-4-yl)-5-fluoro-1H-benzo[d]imidazol-6-yl)-2-methylbut-3-yn-2-ol] | 332 | 346
1.7 | 518 | CC(O)(C#Cc1ccc2c(CN3CCOCC3)nn(-c3ccnc(N)n3)c2c1)c1nccs1 (stereo not drawn) [Example T1-18, 4-(1-(2-aminopyrimidin-4-yl)-3-(morpholinomethyl)-1H-indazol-6-yl)-2-(thiazol-2-yl) but-3-yn-2-ol] | 142 | 59
1.3 | 72.7 | CN(C)Cc1nn(-c2ccnc(N)n2)c2cc(C#CC(C)(O)c3ncco3)ccc12 (stereo not drawn) [Example T1-32, 4-(1-(2-aminopyrimidin-4-yl)-3-((dimethylamino)methyl)-1H-indazol-6-yl)-2-(oxazol-2-yl)but-3-yn-2-ol] | 589 | 
0.9 | 275 | CN(C)C(=O)c1nn(-c2ccnc(N)n2)c2cc(C#CC(C)(O)c3nccs3)ccc12 (stereo not drawn) [Example T1-29, 1-(2-aminopyrimidin-4-yl)-6-(3-hydroxy-3-(thiazol-2-yl)but-1-ynyl)-N,N-dimethyl-1H-indazole-3-carboxamide] | 72.2 | 72.7
0.262 | 129 | Cc1nn(-c2ccnc(N)n2)c2cc(C#CC(C)(O)c3nccs3)ccc12 (stereo not drawn) [Example T1-13, 4-(1-(2-aminopyrimidin-4-yl)-3-methyl-1H-indazol-6-yl)-2-(thiazol-2-yl)but-3-yn-2-ol] | 23.1 | 77
